In the supplement of paper PMC10307832:

What was measured:
Assay in all cases: relative viability (nuclei count vs DMSO), 5 days (fraction); higher = more cells survive
Ibrutinib + Olaparib = compound: C=CC(=O)N1CCC[C@@H](n2nc(-c3ccc(Oc4ccccc4)cc3)c3c(N)ncnc32)C1 [Ibrutinib] + O=C(c1cc(Cc2n[nH]c(=O)c3ccccc23)ccc1F)N1CCN(C(=O)C2CC2)CC1 [Olaparib] (partner 8 µM)
How it was run: (§1)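 For relative viability, nuclei counts in treated wells were divided by those in vehicle wells. Lung cancer cell lines had been pin-tool dosed in 1536-well plates the day after seeding and cultured for 5 days, then fixed and stained in one step (final 0.05% Triton X-100, 1% formaldehyde, 1 ug/ml Hoechst) and imaged at 4×. Doses were one drug alone or a fixed anchor-drug dose plus five library-drug doses (not always all listed) in √10 steps, and values are duplicate-plate medians.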

BMX-IN-1 + Pictilisib = compound: C=CC(=O)Nc1cc(-n2c(=O)ccc3cnc4ccc(-c5ccc(NS(C)(=O)=O)cc5)cc4c32)ccc1C [BMX-IN-1] + CS(=O)(=O)N1CCN(Cc2cc3nc(-c4cccc5[nH]ncc45)nc(N4CCOCC4)c3s2)CC1 [Pictilisib] (partner 1 µM)
How it was run: as §1

BMX-IN-1 + Pemetrexed = compound: C=CC(=O)Nc1cc(-n2c(=O)ccc3cnc4ccc(-c5ccc(NS(C)(=O)=O)cc5)cc4c32)ccc1C [BMX-IN-1] + Nc1nc2[nH]cc(CCc3ccc(C(=O)N[C@@H](CCC(=O)O)C(=O)O)cc3)c2c(=O)[nH]1 [Pemetrexed] (partner 0.2 µM)
How it was run: as §1

PAC-1 + Trametinib = compound: C=CCc1cccc(/C=N/NC(=O)CN2CCN(Cc3ccccc3)CC2)c1O [PAC-1] + CC(=O)Nc1cccc(-n2c(=O)n(C3CC3)c(=O)c3c(Nc4ccc(I)cc4F)n(C)c(=O)c(C)c32)c1 [Trametinib] (partner 0.02 µM)
How it was run: as §1

Row | Cell Line | relative viability (Ibrutinib + Olaparib; first compound 0.005 µM) | relative viability (Ibrutinib + Olaparib; first compound 0.01581 µM) | relative viability (Ibrutinib + Olaparib; first compound 0.05 µM) | relative viability (Ibrutinib + Olaparib; first compound 0.1581 µM) | relative viability (Ibrutinib + Olaparib; first compound 0.5 µM) | relative viability (BMX-IN-1 + Pictilisib; first compound 0.02 µM) | relative viability (BMX-IN-1 + Pictilisib; first compound 0.2 µM) | relative viability (BMX-IN-1 + Pictilisib; first compound 0.6325 µM) | relative viability (BMX-IN-1 + Pictilisib; first compound 2 µM) | relative viability (BMX-IN-1 + Pemetrexed; first compound 0.02 µM) | relative viability (BMX-IN-1 + Pemetrexed; first compound 0.2 µM) | relative viability (BMX-IN-1 + Pemetrexed; first compound 0.6325 µM) | relative viability (BMX-IN-1 + Pemetrexed; first compound 2 µM) | relative viability (PAC-1 + Trametinib; first compound 0.02 µM) | relative viability (PAC-1 + Trametinib; first compound 0.06325 µM) | relative viability (PAC-1 + Trametinib; first compound 0.2 µM) | relative viability (PAC-1 + Trametinib; first compound 2 µM)
1 | HOP-62 | 0.549 | 0.387 | 0.504 | 0.628 | 0.381 | 0.639 | 0.761 | 0.929 | 0.688 | 0.267 | 0.364 | 0.342 | 0.223 | 0.387 | 0.404 | 0.388 | 0.406
2 | IA-LM | 0.881 | 0.891 | 0.797 | 0.936 | 1.04 | 0.337 | 0.403 | 0.427 | 0.386 | – | – | – | – | – | – | – | –
3 | LC-2-ad | 0.802 | 0.719 | 0.859 | 0.741 | 0.739 | 0.645 | 0.555 | 0.619 | 0.482 | 0.265 | 0.28 | 0.277 | 0.281 | 0.933 | 0.919 | 0.897 | 0.954
4 | LCLC-97TM1 | 0.383 | 0.334 | 0.517 | 0.498 | 0.389 | 0.189 | 0.197 | 0.274 | 0.207 | 0.142 | 0.191 | 0.195 | 0.2 | 0.179 | 0.196 | – | 0.221
5 | LCLC-103H | 0.769 | 0.744 | – | 0.739 | 0.758 | 0.636 | 0.612 | 0.684 | 0.609 | 0.444 | 0.546 | 0.467 | 0.418 | 0.636 | 0.697 | 0.708 | 0.714
6 | LK-2 | 0.633 | 0.691 | 0.715 | 0.628 | 0.425 | 0.8 | 0.696 | 0.543 | 0.59 | 0.163 | 0.256 | 0.254 | 0.225 | 0.758 | 0.629 | 0.785 | 0.791
7 | LOU-NH91 | 0.836 | 0.751 | 0.798 | 0.931 | 0.692 | – | 0.509 | 0.546 | 0.512 | – | 0.406 | 0.392 | 0.366 | 0.776 | 0.776 | 0.782 | 0.817
8 | LU99A | 0.254 | 0.272 | 0.285 | 0.291 | 0.25 | 0.309 | 0.382 | 0.39 | 0.301 | 0.198 | 0.226 | 0.183 | 0.141 | 0.542 | 0.475 | 0.539 | 0.564
9 | LXF-289 | 1.16 | 0.994 | 1.01 | 1.03 | 1.02 | 0.808 | 0.863 | 0.88 | 0.761 | 0.896 | 0.947 | 1.01 | 0.985 | 0.7 | 0.718 | 0.705 | 0.675
10 | NCI-H23 | 0.335 | 0.355 | 0.383 | 0.41 | 0.311 | 0.483 | 0.495 | 0.582 | 0.411 | 0.693 | 1.04 | 0.797 | 0.622 | 0.308 | 0.388 | 0.336 | 0.442
11 | NCI-H322M | 0.766 | 0.768 | 0.775 | 0.725 | 0.659 | 0.558 | 0.505 | 0.532 | 0.583 | 0.596 | 0.689 | 0.65 | 0.586 | 0.498 | 0.575 | 0.542 | 0.503
12 | NCI-H358 | 0.469 | 0.508 | – | 0.747 | 0.248 | 0.387 | 0.313 | 0.393 | 0.336 | 0.167 | 0.182 | 0.176 | 0.175 | 0.128 | 0.121 | 0.164 | 0.128
13 | NCI-H441 | 0.794 | 0.728 | 0.652 | 0.768 | 0.567 | 0.461 | 0.618 | 0.491 | 0.606 | 0.225 | 0.267 | 0.282 | 0.256 | 0.408 | 0.629 | 0.482 | 0.411
14 | NCI-H460 | 0.405 | 0.373 | 0.441 | 0.432 | 0.441 | 0.376 | 0.511 | 0.371 | 0.501 | 0.0558 | 0.0711 | 0.0676 | 0.071 | 0.136 | 0.156 | 0.204 | 0.286
15 | NCI-H522 | 0.587 | 0.605 | 0.653 | 0.644 | 0.573 | – | – | – | – | 1 | 1.03 | 1.12 | 1.14 | 0.675 | 0.915 | 0.848 | 0.77
16 | NCI-H727 | 0.736 | 0.817 | 0.659 | 0.792 | 0.688 | 0.439 | 0.416 | 0.403 | 0.337 | – | – | – | – | 0.348 | 0.394 | 0.414 | 0.414
17 | NCI-H1299 | 1 | 0.964 | 0.978 | 0.98 | 0.924 | 0.838 | 0.934 | 0.906 | 0.563 | – | – | – | – | – | – | – | –
18 | NCI-H1563 | – | – | – | – | – | 0.601 | 0.629 | 0.655 | 0.684 | 0.748 | 0.769 | 0.724 | 0.675 | – | – | – | –
19 | NCI-H1648 | 0.626 | 0.552 | 0.653 | 0.766 | 0.481 | – | – | – | – | 0.733 | 0.721 | 0.875 | 0.765 | 0.388 | 0.525 | 0.445 | 0.504
20 | NCI-H1703 | 0.317 | 0.289 | 0.449 | 0.4 | 0.327 | 0.248 | 0.265 | 0.248 | 0.225 | – | – | – | – | – | – | – | –
21 | NCI-H2342 | 0.422 | 0.413 | 0.438 | 0.457 | 0.268 | – | – | – | – | 0.815 | 0.802 | 0.97 | 0.796 | 1.16 | 0.816 | 0.697 | 0.83
22 | SW 900 | 0.886 | 0.694 | 0.832 | 1.02 | 0.752 | – | – | – | – | 0.529 | 0.5 | 0.485 | 0.425 | – | 0.8 | 0.686 | 0.817
